In patent US20150050244A1, “Entomopathogenic Fungi and Uses Thereof” (priority 2008, published 2015):
Values joined by “and” are separate entries in the source; they are usually repeats but may differ in a detail not shown here. Identical values can stand only once.

Tested on: green pea aphid (Myzus persicae)
Assay: Aphid mortality on leaf discs, Potters tower, K4B3 extract versus beauvericin
Type: in vivo
Procedure: Table 7 below presents mortality observed amongst green pea aphid (Myzus persicae) present on Asian brassica leaf discs. Asian brassica leaf discs were placed on 1% water agar in Petri dishes. […] The sprayed Petri dishes were placed dorsal side down on paper towels to allow surfaces to dry. Five replicates of each treatment were done. Mortality was assessed 48 hours after application.

[1] = per replicate, 2 mL sprayed, 48 hours, beauvericin solution 50 μg/mL with 2.5 mL millennium oil/L
[2] = total of replicates, 2 mL sprayed, 48 hours

Q: With beauvericin as the substance, how does the “mortality compared with the water control” value (beauvericin alone, Table 7) read?
A: Its value is “not significantly different”.

Q: And the “aphid mortality (in words)” value (beauvericin even at 50,000 μg/L)?
A: Its value is “very low”.

Q: And the “Alive Adult” value [1]?
A: Its value is 0 (3×) and 8 and 10.

Q: What about the “Alive Juv.” value [1] of the same substance?
A: Its value is 0 (3×) and 22 and 28.

Q: What about the “Dead Adult” value [1] of the same substance?
A: Its value is 0 (4×) and 1.

Q: And the “Dead Juv.” value [1]?
A: Its value is 0 (3×) and 1 and 3.

Q: What about the “Total Alive Adult” value [2] of the same substance?
A: Its value is 18.

Q: And the “Total Alive Juv.” value [2]?
A: The value was 50.

Q: And the “Total Dead Adult” value [2]?
A: The value was 1.

Q: And the “Total Dead Juv.” value [2]?
A: The value was 4.
